Measured values: US9388199B2, “Pyrrolidine derivatives and their use as complement pathway modulators” (priority 2012, dated 2016)

target: Recombinant human factor D (Homo sapiens (Human), UniProt P00746); assay: Human Complement Factor D Assay: Method 1; type: biochemical; settings: 10 nM factor D, substrate Z-Lys-thiobenzyl, fluorescence readout, read-out: IC50 (μM), Factor D inhibition
Experimental: Human Complement Factor D Assay: Method 1
Recombinant human factor D (expressed in E. coli and purified using standard methods) at 10 nM concentration is incubated with test compound at various concentrations for 1 hour at room temperature in 0.1 M Hepes buffer, pH 7.5, containing 1 mM MgCl2, 1 M NaCl and 0.05% CHAPS. A synthetic substrate Z-Lys-thiobenzyl and 2,4-dinitrobenzenesulfonyl-fluoresceine are added to final concentrations of 200 μM and 25 μM, respectively. The increase in fluorescence is recorded at excitation of 485 nm and emission at 535 nm in a microplate spectrofluorimeter. IC50 values are calculated from percentage of inhibition of complement factor D-activity as a function of test compound concentration.

Chain of Recombinant human factor D (P00746 26-253): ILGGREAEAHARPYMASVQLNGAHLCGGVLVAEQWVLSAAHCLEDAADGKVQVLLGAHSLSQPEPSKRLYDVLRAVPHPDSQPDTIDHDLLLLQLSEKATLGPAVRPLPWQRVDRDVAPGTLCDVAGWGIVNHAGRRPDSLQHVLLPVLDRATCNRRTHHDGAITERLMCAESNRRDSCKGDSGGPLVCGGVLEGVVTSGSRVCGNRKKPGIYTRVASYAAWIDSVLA

Row | Structure (SMILES) | IC50 [µM]
1 | CC(=O)c1nn(CC(=O)N2[C@@H]3C[C@@H]3C[C@H]2C(=O)NCCCOC(F)(F)F)c2ccc(OCc3ncccn3)cc12 [Example 14, (1R,3S,5R)-2-{2-[3-Acetyl-5-(pyrimidin-2-ylmethoxy)-indazol-1-yl]-acetyl}-2-aza-bicyclo[3.1.0]hexane-3-carboxylic acid (3-trifluoro methoxy-propyl)-amide] | 0.127
2 | CC[C@H](C)NC(=O)[C@@H]1C[C@H]2C[C@H]2N1C(=O)Cn1nc(C(C)=O)c2cc(OCc3ncccn3)ccc21 [Example 19, (1R,3S,5R)-2-{2-[3-Acetyl-5-(pyrimidin-2-ylmethoxy)-indazol-1-yl]-acetyl}-2-aza-bicyclo[3.1.0]hexane-3-carboxylic acid ((S)-sec-butyl)-amide] | 0.929
3 | CC(C)(C)C(=O)CNC(=O)[C@@H]1C[C@H]2C[C@H]2N1C(=O)Cn1nc(C(N)=O)c2ccccc21 [Example 34, 1-{2-[(1R,3S,5R)-3-(3,3-Dimethyl-2-oxo-butylcarbamoyl)-2-aza-bicyclo[3.1.0]hex-2-yl]-2-oxo-ethyl}-1H-indazole-3-carboxylic acid amide] | 0.192
4 | CC(=O)c1nn(CC(=O)N2[C@@H]3C[C@@H]3C[C@H]2C(=O)NCCOC(F)(F)C(F)(F)F)c2ccc(OCc3ncccn3)cc12 [Example 16, (1R,3S,5R)-2-{2-[3-Acetyl-5-(pyrimidin-2-ylmethoxy)-indazol-1-yl]-acetyl}-2-aza-bicyclo[3.1.0]hexane-3-carboxylic acid (2-penta fluoroethyloxy-ethyl)-amide] | 0.152
5 | CO[C@H]1[C@@H](C(=O)NCCC(C)(C)C)N(C(=O)Cn2nc(C(C)=O)c3ccccc32)C[C@@H]1F [Example 5, (2S,3S,4S)-1-[2-(3-Acetyl-indazol-1-yl)-acetyl]-4-fluoro-3-methoxy-pyrrolidine-2-carboxylic acid (3,3-dimethyl-butyl)-amide] | 0.088
6 | NC(=O)n1cc(NC(=O)N2[C@@H]3C[C@@H]3C[C@H]2C(=O)NCCCCOC(F)(F)F)c2ccccc21 [Example 26, (1R,3S,5R)-2-Aza-bicyclo [3.1.0]hexane-2,3-dicarboxylic acid 2-[(1-carbamoyl-1H-indol-3-yl)-amide] 3-[(4-trifluoromethoxy-butyl)-amide]] | 1.39
7 | CC(=O)c1nn(CC(=O)N2[C@@H]3C[C@@H]3C[C@H]2C(=O)NCC(O)C(F)(F)F)c2ncccc12 (stereo partly drawn) [Example 40, (1R,3S,5R)-2-[2-(3-Acetyl-pyrazolo[3,4-b]pyridin-1-yl)-acetyl]-2-aza-bicyclo [3.1.0]hexane-3-carboxylic acid (3,3,3-trifluoro-2-hydroxy-propyl)-amide] | 10.8
8 | C[Si](C)(C)CCNC(=O)[C@@H]1C[C@H]2C[C@H]2N1C(=O)Nc1cn(C(N)=O)c2ccccc12 [Example 22, (1R,3S,5R)-2-Aza-bicyclo [3.1.0]hexane-2,3-dicarboxylic acid 2-[(1-carbamoyl-1H-indol-3-yl)-amide] 3-[(2-trimethylsilanyl-ethyl)-amide]] | 0.057
9 | CC(C)(C)C(O)CNC(=O)[C@@H]1C[C@H]2C[C@H]2N1C(=O)Cn1nc(C(N)=O)c2ccccc21 (stereo partly drawn) [Example 33, 1-{2-[(1R,3S,5R)-3-(2-Hydroxy-3,3-dimethyl-butylcarbamoyl)-2-aza-bicyclo [3.1.0]hex-2-yl]-2-oxo-ethyl}-1H-indazole-3-carboxylic acid amide] | 0.271
10 | CC(C)(C)C[C@@H](CO)NC(=O)[C@@H]1C[C@H]2C[C@H]2N1C(=O)Cn1nc(C(N)=O)c2ccccc21 [Example 35, 1-{2-[(1R,3S,5R)-3-((S)-1-Hydroxymethyl-3,3-dimethyl-butylcarbamoyl)-2-aza-bicyclo[3.1.0]hex-2-yl]-2-oxo-ethyl}-1H-indazole-3-carboxylic acid amide] | 0.593
11 | CC(=O)c1nn(CC(=O)N2[C@@H]3C[C@@H]3C[C@H]2C(=O)NCCC(C)C)c2ncccc12 [Example 30, (1R,3S,5R)-2-[2-(3-Acetyl-pyrazolo[3,4-b]pyridin-1-yl)-acetyl]-2-aza-bicyclo[3.1.0] hexane-3-carboxylic acid (3-methyl-butyl)-amide] | 0.324
